Measurements published in US20210318318A1, “Kinase Activity In Tumors” (Institute For Cancer Research d/b/a The Research Institute …, priority 2018, published 2021).
“Also recorded” adds a separate entry of the source.

What was measured:
HGSOC cells = test: Cell viability of HGSOC cell line panel (Cell Titer Glo); type: cell-based, human
Procedure: Cells were treated with increasing concentrations of PF-03758309 and cell viability assessed by Cell Titer Glo according to manufacturer's instructions. Data represent the mean of six replicates.
Cell viability was assessed by Cell Titer Glo according to manufacturing. Data represent the mean of six replicates.
For short-term growth assays, 3000-5000 cells were plated per well in 96-well plates and allowed to adhere and equilibrate overnight. Drug was added the following morning and after 120 hours of drug treatment, cell viability was assessed using the CellTiter-Glo Luminescent cell viability assay according to manufacturer (Promega). Students t tests were performed for statistical analyses and p values ≤0.05 were considered significant. For colony formation assays, cells were plated in 24-well dishes (3000-5000 cells per well) and incubated overnight before continuous drug treatment for 14 days, with drug and media replaced twice weekly. At the end of treatment, cells were rinsed with PBS and fixed with chilled methanol for 10 minutes at −20° C. Methanol was removed by aspiration, and cells were stained with 0.5% crystal violet in 20% methanol for 20 minutes at room temperature, washed with distilled water, and scanned.

MRCKB = biological target: T1, MRCKB (Homo sapiens, UniProt Q9Y5S2); test: BDP5290 target profiling (in vitro kinase assays, MIB/MS and MIB-bead selectivity profiling); type: binding
T1 construct: endogenous in cells; host or cells: OVSAHO
T1 sequence (Q9Y5S2 whole entry): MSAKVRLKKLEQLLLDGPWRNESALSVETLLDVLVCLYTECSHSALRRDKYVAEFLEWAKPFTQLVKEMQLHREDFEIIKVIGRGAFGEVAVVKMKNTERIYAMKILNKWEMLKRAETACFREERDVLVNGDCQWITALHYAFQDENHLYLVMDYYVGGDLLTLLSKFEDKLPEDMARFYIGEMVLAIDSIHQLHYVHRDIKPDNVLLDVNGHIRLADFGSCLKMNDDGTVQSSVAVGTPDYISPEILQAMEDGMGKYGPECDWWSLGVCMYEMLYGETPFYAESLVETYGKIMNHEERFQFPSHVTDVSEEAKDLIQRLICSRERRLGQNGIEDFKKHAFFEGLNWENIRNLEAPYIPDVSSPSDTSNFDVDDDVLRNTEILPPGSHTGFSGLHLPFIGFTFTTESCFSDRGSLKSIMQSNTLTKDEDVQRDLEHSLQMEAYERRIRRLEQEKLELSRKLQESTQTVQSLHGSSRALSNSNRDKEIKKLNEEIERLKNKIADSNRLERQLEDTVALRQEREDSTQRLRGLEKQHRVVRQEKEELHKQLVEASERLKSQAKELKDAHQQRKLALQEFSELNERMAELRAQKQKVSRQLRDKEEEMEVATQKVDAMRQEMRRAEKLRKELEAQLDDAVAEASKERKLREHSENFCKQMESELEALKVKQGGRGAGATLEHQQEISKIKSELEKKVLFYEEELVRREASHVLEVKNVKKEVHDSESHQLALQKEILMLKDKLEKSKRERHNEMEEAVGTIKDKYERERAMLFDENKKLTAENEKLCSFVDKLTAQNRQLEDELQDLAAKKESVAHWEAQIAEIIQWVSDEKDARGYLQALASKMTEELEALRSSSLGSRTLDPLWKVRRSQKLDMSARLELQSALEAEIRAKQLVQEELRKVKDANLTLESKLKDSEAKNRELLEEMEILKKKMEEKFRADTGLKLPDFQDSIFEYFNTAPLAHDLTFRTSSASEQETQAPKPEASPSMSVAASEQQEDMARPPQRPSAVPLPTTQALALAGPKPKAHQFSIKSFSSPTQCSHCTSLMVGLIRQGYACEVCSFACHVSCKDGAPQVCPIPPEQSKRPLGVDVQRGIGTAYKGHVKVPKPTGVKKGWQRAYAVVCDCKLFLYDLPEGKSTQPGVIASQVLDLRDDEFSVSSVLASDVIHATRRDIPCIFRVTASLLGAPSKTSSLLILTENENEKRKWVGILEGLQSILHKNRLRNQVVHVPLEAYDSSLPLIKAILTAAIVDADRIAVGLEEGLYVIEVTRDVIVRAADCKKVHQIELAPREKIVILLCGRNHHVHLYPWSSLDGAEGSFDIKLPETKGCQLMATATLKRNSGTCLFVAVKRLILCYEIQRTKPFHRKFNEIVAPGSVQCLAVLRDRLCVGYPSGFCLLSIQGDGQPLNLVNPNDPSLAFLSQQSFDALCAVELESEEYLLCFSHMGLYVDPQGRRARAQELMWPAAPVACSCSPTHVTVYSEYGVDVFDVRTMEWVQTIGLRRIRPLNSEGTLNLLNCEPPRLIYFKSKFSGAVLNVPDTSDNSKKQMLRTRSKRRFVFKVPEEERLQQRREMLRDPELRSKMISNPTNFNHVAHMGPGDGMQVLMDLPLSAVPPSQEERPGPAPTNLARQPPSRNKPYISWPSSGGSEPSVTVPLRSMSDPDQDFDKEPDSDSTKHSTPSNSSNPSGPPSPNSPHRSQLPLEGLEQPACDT
Procedure: (§1) MIB-elutions were then analyzed by western blot.
(§2) Kinome elutions were then analyzed using LC-MS/MS and changes in kinase binding quantified using label free quantitation.
(§3) Lysates were then incubated with MIBs for 45 minutes at 4° C. (Medard et al., J. Proteome Res., 2015, 14, 1574-1586) and added to gravity flow columns. The MIB preparation protocol was subsequently followed excluding the reduction and alkylation steps. Following methanol/chloroform precipitation, the precipitated pellet was resuspended in 20 μL complete MIBs lysis buffer and 4 μL 6×LSB was added to each sample. Samples were boiled at 100° C. for 5 minutes and subjected to western blot analysis. For the selectivity assay analyzed via LC-MS/MS, 5 mg OVSAHO lysates were preincubated with the same drug concentrations and incubated with MIBs, and the MIB preparation protocol was followed.

AURKB = biological target: T2, AURKB (Homo sapiens, UniProt Q96GD4); test: as above; type: binding
T2 construct: endogenous in cells; host or cells: OVCAR4 cells; OVSAHO and KURAMOCHI lysates
T2 sequence (Q96GD4 whole entry): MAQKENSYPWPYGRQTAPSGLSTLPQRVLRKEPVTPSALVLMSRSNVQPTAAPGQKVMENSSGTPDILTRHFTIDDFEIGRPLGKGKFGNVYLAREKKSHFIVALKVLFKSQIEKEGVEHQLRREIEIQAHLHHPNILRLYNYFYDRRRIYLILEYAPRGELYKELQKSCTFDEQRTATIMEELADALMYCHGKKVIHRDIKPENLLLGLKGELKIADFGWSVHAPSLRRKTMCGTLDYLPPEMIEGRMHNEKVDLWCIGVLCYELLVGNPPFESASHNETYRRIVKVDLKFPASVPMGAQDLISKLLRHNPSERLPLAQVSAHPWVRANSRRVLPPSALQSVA
Procedure: (§4) Statistical kinases are identified using Students T-tests with FDR 0.05.
as §1, §2, §3

[1] = tested on: FAK1, MLC and Paxillin phosphorylation; FAK1 and CHEK1 protein levels; test: Western blot of signaling in inhibitor-treated HGSOC cells; type: cell-based, human; details: HGSOC cells, 0.5, 1 or 3 μM, 48 hours
Procedure: COV362 cells were treated with 0.5, 1 or 3 μM of A-674563 or SB-772077 for 48 hours and signaling monitored by western blot.
Samples were harvested in MIB lysis buffer, subjected to SDS-PAGE […] and transferred to PVDF membranes before western blotting with primary antibodies. For pMYPT and pMLC blots, cells were harvested in a buffer containing 1% (w/v) SDS, 50 mM Tris pH 7.5 supplemented with protease and phosphatase inhibitors buffer and were passed through QIAshredder columns (Qiagen, 79654), (Unbekandt et al., Cell Commun. Signal., 2014, 12, 54). For the list of primary antibodies used, see Table 4. Secondary HRP-anti-rabbit and HRP-anti-mouse were obtained from ThermoFisher Scientific. SuperSignal West Pico and Femto Chemiluminescent Substrates (Thermo) were used to visualize blots.

MRCKA [2] = biological target: T3, MRCKA (Homo sapiens, UniProt Q5VT25); details: Unbekandt et al., 2014; cited from earlier work
T3 sequence (Q5VT25 whole entry): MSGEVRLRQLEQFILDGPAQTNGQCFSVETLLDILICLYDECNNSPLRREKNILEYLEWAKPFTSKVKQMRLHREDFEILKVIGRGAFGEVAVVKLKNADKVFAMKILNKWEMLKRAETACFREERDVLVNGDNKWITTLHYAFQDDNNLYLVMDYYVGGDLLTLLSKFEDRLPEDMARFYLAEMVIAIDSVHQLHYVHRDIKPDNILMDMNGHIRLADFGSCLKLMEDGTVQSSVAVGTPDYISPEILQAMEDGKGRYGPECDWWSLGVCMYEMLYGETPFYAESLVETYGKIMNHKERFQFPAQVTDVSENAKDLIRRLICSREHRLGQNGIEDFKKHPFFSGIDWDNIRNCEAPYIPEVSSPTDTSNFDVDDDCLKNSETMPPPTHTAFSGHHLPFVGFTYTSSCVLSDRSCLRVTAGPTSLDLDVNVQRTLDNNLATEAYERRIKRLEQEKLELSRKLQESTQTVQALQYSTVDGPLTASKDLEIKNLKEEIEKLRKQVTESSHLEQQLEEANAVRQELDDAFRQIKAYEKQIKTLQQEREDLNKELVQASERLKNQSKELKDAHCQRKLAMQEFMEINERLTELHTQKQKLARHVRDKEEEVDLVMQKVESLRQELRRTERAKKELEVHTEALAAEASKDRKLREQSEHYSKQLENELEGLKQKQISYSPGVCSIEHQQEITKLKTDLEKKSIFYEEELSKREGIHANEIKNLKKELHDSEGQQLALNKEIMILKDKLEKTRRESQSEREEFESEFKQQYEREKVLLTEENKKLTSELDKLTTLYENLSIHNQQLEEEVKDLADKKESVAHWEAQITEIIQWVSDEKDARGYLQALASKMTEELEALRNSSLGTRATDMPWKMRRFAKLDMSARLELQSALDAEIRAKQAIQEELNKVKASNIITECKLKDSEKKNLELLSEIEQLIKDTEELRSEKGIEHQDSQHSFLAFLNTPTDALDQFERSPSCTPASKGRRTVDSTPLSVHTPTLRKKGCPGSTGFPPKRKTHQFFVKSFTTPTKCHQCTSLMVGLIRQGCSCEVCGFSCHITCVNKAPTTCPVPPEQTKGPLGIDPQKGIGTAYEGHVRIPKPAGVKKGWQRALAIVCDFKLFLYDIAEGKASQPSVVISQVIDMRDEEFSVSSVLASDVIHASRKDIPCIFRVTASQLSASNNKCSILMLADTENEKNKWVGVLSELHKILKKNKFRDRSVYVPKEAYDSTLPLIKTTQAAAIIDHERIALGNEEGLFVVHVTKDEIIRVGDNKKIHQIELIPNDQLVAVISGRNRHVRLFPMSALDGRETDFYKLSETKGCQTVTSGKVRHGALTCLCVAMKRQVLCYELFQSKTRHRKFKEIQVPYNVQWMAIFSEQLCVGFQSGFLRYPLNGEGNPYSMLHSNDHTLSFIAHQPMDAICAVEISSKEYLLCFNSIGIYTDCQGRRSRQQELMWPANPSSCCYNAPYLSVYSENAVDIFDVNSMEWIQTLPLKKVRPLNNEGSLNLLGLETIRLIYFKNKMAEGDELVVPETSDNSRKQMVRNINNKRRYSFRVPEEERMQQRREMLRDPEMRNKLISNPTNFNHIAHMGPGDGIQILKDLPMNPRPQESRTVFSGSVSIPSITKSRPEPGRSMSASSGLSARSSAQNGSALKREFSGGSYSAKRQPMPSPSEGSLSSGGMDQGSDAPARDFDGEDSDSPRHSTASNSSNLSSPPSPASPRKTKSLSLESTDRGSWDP

MRCKA [3] = biological target: T3, MRCKA; test: BDP5290 target profiling (in vitro kinase assays, MIB/MS proteomic analysis of drug binders); type: binding; set-up: endogenous in cells; host or cells: OVSAHO; details: doses <5 μM
Procedure: PCA plot of MIB-determined SILAC ratios.
as §4, §3

[4] = cell lysates incubated with increasing doses for 30 minutes

## O=C(Nc1cn[nH]c1-c1ccccn1)c1nn(C2CCNCC2)cc1Cl [BDP5290]
HGSOC cells; doses <5 μM
  potency in HGSOC cells: minimal potency
HGSOC cells; increasing concentrations, Cell Titer Glo
  cell viability of HGSOC cells: inhibiting HGSOC cell viability at higher concentrations; also recorded: minimal effects
MRCKB; [4]
  elution of MRCKB from MIB beads (western blot): not MRCKB
MRCKB; doses <5 μM
  activity against primary target MRCKB in HGSOC cells: little activity
AURKB; [4]
  elution of AURKB from MIB beads (western blot): elute AURKB
AURKB; doses <5 μM
  off-target activity on AURKB in HGSOC cells: off-targets
[1]
  pMLC, pMYPT1, pFAK or total FAK1 or CHEK1 levels: did not reduce
MRCKA [2]
  Ki: 0.01 µM
MRCKA [3]
  activity against primary target MRCKA in HGSOC cells: little activity
